# Results published in publication PMC5218480 (PLoS ONE, 2017).
# System: MV-4-11 cells
# Assay: Gene expression microarray analysis (Affymetrix PrimeView) and GSEA
# Assay type: cell-based, human
# Parameters: RFU PODN (11730768_x_at) / Fold change /veh PODN (11730768_x_at) / RFU LINC00158 (11744669_a_at) / Fold change /veh LINC00158 (11744669_a_at) / RFU DUSP10 (11751237_a_at) / Fold change /veh DUSP10 (11751237_a_at) / RFU ID3 (11757404_x_at) / Fold change /veh ID3 (11757404_x_at) / RFU PLEKHG5 (11737974_s_at) / Fold change /veh PLEKHG5 (11737974_s_at) / RFU LRRC4B (11730491_at) / Fold change /veh LRRC4B (11730491_at) / RFU GIMAP4 (11747438_a_at) / Fold change /veh GIMAP4 (11747438_a_at) / RFU KRT8 (11758183_x_at) / Fold change /veh KRT8 (11758183_x_at) / RFU CNN1 (11734310_a_at) / Fold change /veh CNN1 (11734310_a_at) / RFU VPS37D (11726825_at) / Fold change /veh VPS37D (11726825_at) / RFU C10orf10 (11716522_x_at) / Fold change /veh C10orf10 (11716522_x_at) / RFU KIR2DL2 /// KIR2DL4 /// KIR2DL5A /// KIR2DL5B /// KIR2DS1 /// KIR2DS2 /// KIR2DS3 /// KIR2DS4 /// KIR3DL3 /// KIR3DL3 /// KIR3DS1 (11738374_at) / Fold change /veh KIR2DL2 /// KIR2DL4 /// KIR2DL5A /// KIR2DL5B /// KIR2DS1 /// KIR2DS2 /// KIR2DS3 /// KIR2DS4 /// KIR3DL3 /// KIR3DL3 /// KIR3DS1 (11738374_at) / RFU C1QL1 (11718748_at) / Fold change /veh C1QL1 (11718748_at) / RFU TMPRSS4 (11747572_a_at) / Fold change /veh TMPRSS4 (11747572_a_at) / RFU HAMP (11756126_x_at) / Fold change /veh HAMP (11756126_x_at) / RFU RNFT2 (11725882_a_at) / Fold change /veh RNFT2 (11725882_a_at) / RFU NR4A2 (11747474_a_at) / Fold change /veh NR4A2 (11747474_a_at) / RFU ABCC12 (11746883_a_at) / Fold change /veh ABCC12 (11746883_a_at) / RFU TMEM136 (11760407_x_at) / Fold change /veh TMEM136 (11760407_x_at) / RFU CLDN22 /// WWC2 (11732394_at) / Fold change /veh CLDN22 /// WWC2 (11732394_at) / RFU HLA-DPB1 (11760878_x_at) / Fold change /veh HLA-DPB1 (11760878_x_at) / RFU SPINT1 (11716480_a_at) / Fold change /veh SPINT1 (11716480_a_at) / RFU GAP43 (11754022_s_at) / Fold change /veh GAP43 (11754022_s_at) / RFU A4GNT (11735810_at) / Fold change /veh A4GNT (11735810_at) / RFU PRB3 (11715151_x_at) / Fold change /veh PRB3 (11715151_x_at) / RFU TUBB4B (11761932_at) / Fold change /veh TUBB4B (11761932_at) / RFU CAPN14 (11732068_a_at) / Fold change /veh CAPN14 (11732068_a_at) / RFU TMCC2 (11721928_a_at) / Fold change /veh TMCC2 (11721928_a_at) / RFU IRGQ (11745062_a_at) / Fold change /veh IRGQ (11745062_a_at) / RFU FAM174B (11720279_a_at) / Fold change /veh FAM174B (11720279_a_at) / RFU TMPRSS4 (11748680_a_at) / Fold change /veh TMPRSS4 (11748680_a_at) / RFU FAM212B (11763350_a_at) / Fold change /veh FAM212B (11763350_a_at) / RFU PLEKHG5 (11743358_a_at) / Fold change /veh PLEKHG5 (11743358_a_at) / RFU ZSCAN30 (11745921_a_at) / Fold change /veh ZSCAN30 (11745921_a_at) / RFU CMKLR1 (11741424_a_at) / Fold change /veh CMKLR1 (11741424_a_at) / RFU LOC101060620 /// MAPK8IP1 (11723275_at) / Fold change /veh LOC101060620 /// MAPK8IP1 (11723275_at) / RFU SPTSSB (11747773_x_at) / Fold change /veh SPTSSB (11747773_x_at) / RFU PRSS12 (11739890_at) / Fold change /veh PRSS12 (11739890_at) / RFU BIN1 (11741810_x_at) / Fold change /veh BIN1 (11741810_x_at) / RFU WNT11 (11732464_a_at) / Fold change /veh WNT11 (11732464_a_at) / RFU C10orf10 (11716521_a_at) / Fold change /veh C10orf10 (11716521_a_at) / RFU C5orf56 (11738089_at) / Fold change /veh C5orf56 (11738089_at) / RFU CYB561 (11721691_x_at) / Fold change /veh CYB561 (11721691_x_at) / RFU ANKRD19P (11752326_a_at) / Fold change /veh ANKRD19P (11752326_a_at) / RFU OR2T12 /// OR2T33 /// OR2T8 (11738714_s_at) / Fold change /veh OR2T12 /// OR2T33 /// OR2T8 (11738714_s_at) / RFU VCAN (11748164_a_at) / Fold change /veh VCAN (11748164_a_at) / RFU JSRP1 (11732532_at) / Fold change /veh JSRP1 (11732532_at) / RFU KRTAP10-11 (11738290_x_at) / Fold change /veh KRTAP10-11 (11738290_x_at) / RFU MYO3A (11730013_a_at) / Fold change /veh MYO3A (11730013_a_at) / RFU EBF3 (11725865_a_at) / Fold change /veh EBF3 (11725865_a_at) / RFU CAMK2N1 (11719241_x_at) / Fold change /veh CAMK2N1 (11719241_x_at) / RFU C5orf56 (11738088_a_at) / Fold change /veh C5orf56 (11738088_a_at) / RFU OLFML3 (11715873_a_at) / Fold change /veh OLFML3 (11715873_a_at) / RFU LOC100653217 /// NTM (11731650_a_at) / Fold change /veh LOC100653217 /// NTM (11731650_a_at) / RFU MAPK11 (11762145_a_at) / Fold change /veh MAPK11 (11762145_a_at) / RFU FIZ1 (11724087_x_at) / Fold change /veh FIZ1 (11724087_x_at) / RFU OASL (11726364_x_at) / Fold change /veh OASL (11726364_x_at) / RFU SOX15 (11748057_x_at) / Fold change /veh SOX15 (11748057_x_at) / RFU CD79A (11719716_a_at) / Fold change /veh CD79A (11719716_a_at) / RFU HIST1H1D (11736915_at) / Fold change /veh HIST1H1D (11736915_at) / RFU CASKIN2 (11723855_a_at) / Fold change /veh CASKIN2 (11723855_a_at) / RFU LOC730098 (11760151_x_at) / Fold change /veh LOC730098 (11760151_x_at) / RFU OR4N2 (11742367_at) / Fold change /veh OR4N2 (11742367_at) / RFU PRRT2 (11749266_a_at) / Fold change /veh PRRT2 (11749266_a_at) / RFU SNX32 (11753110_a_at) / Fold change /veh SNX32 (11753110_a_at) / RFU CDHR5 (11726645_a_at) / Fold change /veh CDHR5 (11726645_a_at) / RFU RCAN1 (11760418_a_at) / Fold change /veh RCAN1 (11760418_a_at) / RFU FAM167A (11723789_a_at) / Fold change /veh FAM167A (11723789_a_at) / RFU FAM26E (11764081_at) / Fold change /veh FAM26E (11764081_at) / RFU ISYNA1 (11749810_s_at) / Fold change /veh ISYNA1 (11749810_s_at) / RFU ACY1 (11761880_at) / Fold change /veh ACY1 (11761880_at) / RFU 11764098_at / Fold change /veh 11764098_at / RFU SAMD14 (11745864_x_at) / Fold change /veh SAMD14 (11745864_x_at) / RFU NPB (11741838_a_at) / Fold change /veh NPB (11741838_a_at) / RFU TMPRSS6 (11731388_a_at) / Fold change /veh TMPRSS6 (11731388_a_at) / RFU KRTAP10-2 (11738614_at) / Fold change /veh KRTAP10-2 (11738614_at) / RFU ARHGAP8 /// PRR5-ARHGAP8 (11727945_x_at) / Fold change /veh ARHGAP8 /// PRR5-ARHGAP8 (11727945_x_at) / RFU KRTAP5-7 /// NADSYN1 (11734609_at) / Fold change /veh KRTAP5-7 /// NADSYN1 (11734609_at) / RFU RASL12 (11751679_a_at) / Fold change /veh RASL12 (11751679_a_at) / RFU CDKN2B (11736163_a_at) / Fold change /veh CDKN2B (11736163_a_at) / RFU PRF1 (11729649_at) / Fold change /veh PRF1 (11729649_at) / RFU, ZNF638 /// ZNF638-IT1 / Fold change vs veh, ZNF638 /// ZNF638-IT1 / RFU, PANK3 / Fold change vs veh, PANK3 / RFU, SH3YL1 / Fold change vs veh, SH3YL1 / RFU, ZEB2 / Fold change vs veh, ZEB2 / RFU, NRIP1 / Fold change vs veh, NRIP1 / RFU, PTTG1IP / Fold change vs veh, PTTG1IP / RFU, CAPN2 / Fold change vs veh, CAPN2 / RFU, MED14 / Fold change vs veh, MED14 / RFU, SNORA58 / Fold change vs veh, SNORA58 / RFU, C1orf63 / Fold change vs veh, C1orf63 / RFU, LRRFIP1 / Fold change vs veh, LRRFIP1 / RFU, NDUFAF7 / Fold change vs veh, NDUFAF7 / RFU, SLC12A2 / Fold change vs veh, SLC12A2 / RFU, IBTK / Fold change vs veh, IBTK / RFU, ESF1 / Fold change vs veh, ESF1 / Fold change vs veh, TMEM50B / RFU, TAOK1 / Fold change vs veh, TAOK1 / RFU, ACBD3 / Fold change vs veh, ACBD3 / RFU, TMA16 / Fold change vs veh, TMA16 / RFU, RWDD3 / Fold change vs veh, RWDD3 / RFU, BCAT1 / Fold change vs veh, BCAT1 / RFU, EDEM3 / Fold change vs veh, EDEM3 / RFU, TMEM33 / Fold change vs veh, TMEM33 / RFU, WDR75 / Fold change vs veh, WDR75 / RFU, AHCTF1 / Fold change vs veh, AHCTF1 / RFU, TFRC / Fold change vs veh, TFRC / RFU, ZDHHC17 / Fold change vs veh, ZDHHC17 / RFU, NOM1 / Fold change vs veh, NOM1 / RFU, ARL8B / Fold change vs veh, ARL8B / RFU, ZBTB11 / Fold change vs veh, ZBTB11 / RFU, TAMM41 / Fold change vs veh, TAMM41 / RFU, KIAA1704 /// LOC100996395 / Fold change vs veh, KIAA1704 /// LOC100996395 / RFU, ING1 / Fold change vs veh, ING1 / RFU, TRMT61B / Fold change vs veh, TRMT61B / RFU, FUBP3 / Fold change vs veh, FUBP3 / RFU, TP53 / Fold change vs veh, TP53 / RFU, TNKS2 / Fold change vs veh, TNKS2 / RFU, ZFP14 / Fold change vs veh, ZFP14 / RFU, ACTR2 / Fold change vs veh, ACTR2 / RFU, PPP3R1 / Fold change vs veh, PPP3R1 / RFU, PIK3R1 / Fold change vs veh, PIK3R1 / RFU, HNRNPA1 / Fold change vs veh, HNRNPA1 / RFU, RNF170 / Fold change vs veh, RNF170 / RFU, ZNF28 / Fold change vs veh, ZNF28 / RFU, RNGTT / Fold change vs veh, RNGTT / RFU, OGT / Fold change vs veh, OGT / RFU, BRD1 / Fold change vs veh, BRD1 / RFU, MARS / Fold change vs veh, MARS / RFU, ZNF655 / Fold change vs veh, ZNF655 / RFU, FAHD1 / Fold change vs veh, FAHD1 / RFU, BDP1 / Fold change vs veh, BDP1 / RFU, LRRCC1 / Fold change vs veh, LRRCC1 / RFU, ARID1A / Fold change vs veh, ARID1A / RFU, ZNF146 / Fold change vs veh, ZNF146 / RFU, ZNF330 / Fold change vs veh, ZNF330 / RFU, GPN3 / Fold change vs veh, GPN3 / RFU, C9orf123 / Fold change vs veh, C9orf123 / RFU, N4BP2L2 / Fold change vs veh, N4BP2L2 / RFU, ARFIP1 / Fold change vs veh, ARFIP1 / RFU, FAM179B / Fold change vs veh, FAM179B / RFU, BCL10 / Fold change vs veh, BCL10 / RFU, UHRF1BP1L / Fold change vs veh, UHRF1BP1L / RFU, BET1 / Fold change vs veh, BET1 / RFU, CNOT2 / Fold change vs veh, CNOT2 / RFU, ZNF268 / Fold change vs veh, ZNF268 / Fold change vs veh, ZNF507 / RFU, DGCR2 / Fold change vs veh, DGCR2 / RFU, WDSUB1 / Fold change vs veh, WDSUB1 / Fold change vs veh, HSP90B1 /// MIR3652 / RFU, ADSS / Fold change vs veh, ADSS / RFU, GK / Fold change vs veh, GK / RFU, ZNF148 / Fold change vs veh, ZNF148 / RFU, TAF9 / Fold change vs veh, TAF9 / RFU, SLC1A5 / Fold change vs veh, SLC1A5 / RFU, SLMO2 / Fold change vs veh, SLMO2 / RFU, ABCC4 / Fold change vs veh, ABCC4 / RFU, LOC101060439 /// RAP1B / Fold change vs veh, LOC101060439 /// RAP1B / RFU, RFX7 / Fold change vs veh, RFX7 / RFU, GTPBP10 / Fold change vs veh, GTPBP10 / RFU, CNEP1R1 / Fold change vs veh, CNEP1R1 / RFU, BIVM-ERCC5 /// ERCC5 / Fold change vs veh, BIVM-ERCC5 /// ERCC5 / RFU, ILF3 / Fold change vs veh, ILF3 / RFU 11762660_at / Fold change /veh 11762660_at / RFU VCAN (11757783_s_at) / Fold change /veh VCAN (11757783_s_at) / RFU DDX43 (11728927_at) / Fold change /veh DDX43 (11728927_at) / RFU KRT8 (11758188_x_at) / Fold change /veh KRT8 (11758188_x_at) / RFU NKD1 (11759106_at) / Fold change /veh NKD1 (11759106_at) / RFU SRD5A1 (11742802_a_at) / Fold change /veh SRD5A1 (11742802_a_at) / RFU TPSAB1 /// TPSB2 (11721975_s_at) / Fold change /veh TPSAB1 /// TPSB2 (11721975_s_at) / RFU GSTM3 (11746129_a_at) / Fold change /veh GSTM3 (11746129_a_at) / RFU IL23R (11737362_x_at) / Fold change /veh IL23R (11737362_x_at) / RFU TMEM51 (11727254_a_at) / Fold change /veh TMEM51 (11727254_a_at) / RFU PIWIL2 (11732686_x_at) / Fold change /veh PIWIL2 (11732686_x_at) / RFU ORM1 (11744905_x_at) / Fold change /veh ORM1 (11744905_x_at) / RFU CCDC152 (11743942_at) / Fold change /veh CCDC152 (11743942_at) / RFU ECM1 (11717891_a_at) / Fold change /veh ECM1 (11717891_a_at) / RFU IL23R (11748794_a_at) / Fold change /veh IL23R (11748794_a_at) / RFU TNFAIP8L3 (11732012_x_at) / Fold change /veh TNFAIP8L3 (11732012_x_at) / RFU MBOAT4 (11741988_at) / Fold change /veh MBOAT4 (11741988_at) / RFU 11764193_at / Fold change /veh 11764193_at / RFU TMEM53 (11763286_at) / Fold change /veh TMEM53 (11763286_at) / RFU MAGEB2 (11727129_at) / Fold change /veh MAGEB2 (11727129_at) / RFU TMEM200A (11744735_a_at) / Fold change /veh TMEM200A (11744735_a_at) / RFU CCDC152 (11751479_a_at) / Fold change /veh CCDC152 (11751479_a_at) / RFU FAM211A (11726209_a_at) / Fold change /veh FAM211A (11726209_a_at) / RFU RGS16 (11746705_a_at) / Fold change /veh RGS16 (11746705_a_at) / RFU VCAN (11755009_s_at) / Fold change /veh VCAN (11755009_s_at) / RFU RHOB (11743442_s_at) / Fold change /veh RHOB (11743442_s_at) / RFU RGS16 (11720943_a_at) / Fold change /veh RGS16 (11720943_a_at) / RFU RGS16 (11720944_at) / Fold change /veh RGS16 (11720944_at) / RFU, VPS4B / Fold change vs veh, VPS4B / RFU, CREB1 / Fold change vs veh, CREB1 / RFU, DNAJC13 / Fold change vs veh, DNAJC13 / RFU, GNAQ / Fold change vs veh, GNAQ / RFU, CDK5R1 / Fold change vs veh, CDK5R1 / RFU, ZRANB3 / Fold change vs veh, ZRANB3 / RFU, CUL4A / Fold change vs veh, CUL4A / RFU, CCNY / Fold change vs veh, CCNY / RFU, UFL1 / Fold change vs veh, UFL1 / RFU, COG3 / Fold change vs veh, COG3 / RFU, DIAPH2 / Fold change vs veh, DIAPH2 / RFU, SKA2 / Fold change vs veh, SKA2 / RFU, AFF3 / Fold change vs veh, AFF3 / RFU, LMF1 / Fold change vs veh, LMF1 / RFU, IPO11 / Fold change vs veh, IPO11 / RFU, DFFB / Fold change vs veh, DFFB / RFU, FOXP1 / Fold change vs veh, FOXP1 / RFU, CARD8 / Fold change vs veh, CARD8 / RFU, STRN3 / Fold change vs veh, STRN3 / RFU, ADK / Fold change vs veh, ADK / RFU, RASSF2 / Fold change vs veh, RASSF2 / RFU, WIPF1 / Fold change vs veh, WIPF1 / RFU, LARP1B / Fold change vs veh, LARP1B / RFU, RASA1 / Fold change vs veh, RASA1 / RFU, RB1 / Fold change vs veh, RB1 / RFU, PPFIA1 / Fold change vs veh, PPFIA1 / RFU, MAT2A / Fold change vs veh, MAT2A / RFU, CCT5 / Fold change vs veh, CCT5 / RFU, WDR92 / Fold change vs veh, WDR92 / RFU, CUX1 / Fold change vs veh, CUX1 / RFU, TTC7A / Fold change vs veh, TTC7A / RFU, TMEM135 / Fold change vs veh, TMEM135 / RFU, DEPTOR / Fold change vs veh, DEPTOR / RFU, CPM / Fold change vs veh, CPM / RFU, DNAJB6 / Fold change vs veh, DNAJB6 / RFU, CACNA2D3 / Fold change vs veh, CACNA2D3 / RFU, DTX4 / Fold change vs veh, DTX4 / RFU, TFCP2 / Fold change vs veh, TFCP2 / RFU, GMCL1 /// GMCL1P1 / Fold change vs veh, GMCL1 /// GMCL1P1 / RFU, AEBP2 / Fold change vs veh, AEBP2 / RFU, SNHG1 /// SNORD22 /// SNORD25 /// SNORD26 /// SNORD27 /// SNORD28 /// SNORD29 /// SNORD31 / Fold change vs veh, SNHG1 /// SNORD22 /// SNORD25 /// SNORD26 /// SNORD27 /// SNORD28 /// SNORD29 /// SNORD31 / Fold change (Aza/veh), C12orf56 (ProbeSet 11735607_a_at) / Fold change (ACY-1035/veh), C12orf56 (ProbeSet 11735607_a_at) / Fold change (Aza/veh), FGFR1OP (ProbeSet 11751329_s_at) / Fold change (ACY-1035/veh), FGFR1OP (ProbeSet 11751329_s_at) / Fold change (Aza/veh), VPS36 (ProbeSet 11739960_a_at) / Fold change (ACY-1035/veh), VPS36 (ProbeSet 11739960_a_at) / RFU SYPL1 (11715823_x_at) / Fold change /veh SYPL1 (11715823_x_at) / RFU IGFBP7 (11715501_s_at) / Fold change /veh IGFBP7 (11715501_s_at) / RFU REEP3 (11722064_at) / Fold change /veh REEP3 (11722064_at) / RFU IGLL1 (11728026_x_at) / Fold change /veh IGLL1 (11728026_x_at): dose or concentration left out as unconfirmed
# Settings: MV-4-11 cells, 48 hours
compound,measurement,value
Nc1ccc(-c2cccs2)cc1NC(=O)c1ccc2c(c1)cc(C1CC1)n2CCN1CCOCC1 [ACY-1035],Fold change /veh ANKRD19P (11752326_a_at),1.02
